# Assay results published in patent EP0500785B1, “A HUMAN T CELL REACTIVE FELINE PROTEIN (TRFP) ISOLATED FROM HOUSE DUST AND USES THEREFOR” (IMMULOGIC PHARMACEUTICAL CORPORATION, priority 1989, dated 2002).
# System: TRFP primed T cell cultures
# Assay: T cell proliferation assay (tritiated thymidine incorporation) of TRFP-primed T cells restimulated with allergens or peptides
# Type: cell-based, human
# Procedure: Peripheral blood mononuclear cells (PBMC) were purified from 60 ml of heparinized blood from cat allergic patients. PBMC were subsequently treated as described below, although in individual cases, the length of time of cultivation with IL-2 and/or IL-4 and the specific peptides used for stimulation varied.
# 10 ml of PBMC from patient 131 at 10^6/ml were cultured at 37°C for 7 days in the presence of 5 micrograms purified TRFP/ml RPMI-1640 supplemented with 5% pooled human AB serum. Viable cells were purified by Ficoll-Hypaque centrifugation and cultured for three weeks at 5 units recombinant human IL-2/ml and 5 units recombinant human IL-4/ml. The resting T cells were then restimulated (secondary) with 5 micrograms TRFP at 2 x 10^5/ml in the presence of irradiated (3500 Rads) autologous PBMC at a concentration of 5 x 10^5/ml for three days, purified by Ficoll-Hypaque centrifugation and grown in 5 units IL-2 and 5 units IL-4/ml for two weeks. For assay, 2 x 10^4 resting secondary T cells were restimulated (tertiary) in the presence of 5 x 10^4 irradiated (3500 Rads) autologous PBMC or 2 x 10^4 transformed B cells (20,000 Rads) with various concentrations of allergens or their fragments in a volume of 200 microliters in a 96-well round bottom assay plates for 3 days. Each well then received 1 microCurie tritiated (methyl) thymidine for 16 hours. The counts incorporated were collected onto glass fiber filters and processed for liquid scintillation counting.
# Antigens used: T cell reactive feline protein (TRFP), Hollister-Stier cat epithelium skin test reagent (CST), IPC ragweed pollen extract (pollen), and synthetic peptides derived from the TRFP protein sequence (See Figures 6 and 7). Significant T cell proliferation is generally regarded as greater than 2.5 times the media control (T cells and antigen presenting cells alone).
# Alternatively, PBMC were treated as follows: the primary stimulated cells were cultured in IL-2/IL-4 for two weeks. The resting T cells derived from this culture were tested in a secondary assay with some, but not all, of the above allergens. […] This type of epitope analysis has allowed the definition of T cell epitopes present in TRFP.
# [1] = Chain #1 TRFP peptides, average cpm with antigen divided by cpm of T cells and antigen presenting cells alone, responding patients, SI ≥ 2.5 positive
# [2] = Chain #1 TRFP peptides, cat allergic patients, average SI of all responding patients multiplied by percent of patients with a positive response
# [3] = Chain #2 TRFP peptides, cat allergic patients, average SI of responding patients multiplied by percent positive
# [4] = Chain #2 TRFP peptides, cat allergic patients, average of responding patients
substance,measurement,setting,value
"Fel 1-2: TRFP chain 1 peptide, amino acids 1 - 17 (EICPAVKRDVDLFLTGT; UniProt P30438 23-39, looked up, fragment)",SI,[1],7.4
same,PI,[2],311
"Fel 3-1: TRFP chain 1 peptide, amino acids 18 - 33 (PDEYVEQVAQYKALPV; UniProt P30438 40-55, looked up, fragment)",SI,[1],9.4
same,PI,[2],638
"Fel 3-11: TRFP chain 1 peptide, amino acids 18 - 30 (PDEYVEQVAQYKA; UniProt P30438 40-52, looked up, fragment)",SI,[1],10.4
same,PI,[2],863
"Fel 3-13: TRFP chain 1 peptide, amino acids 18 - 28 (PDEYVEQVAQY; UniProt P30438 40-50, looked up, fragment)",SI,[1],11.5
same,PI,[2],690
"Fel 3-15: TRFP chain 1 peptide, amino acids 18 - 29 (PDEYVEQVAQYK; UniProt P30438 40-51, looked up, fragment)",SI,[1],10.4
same,PI,[2],1040
"Fel 8-1: TRFP chain 1 peptide, amino acids 5 - 33 (AVKRDVDLFLTGTPDEYVEQVAQYKALPV; UniProt P30438 27-55, looked up, fragment)",SI,[1],15.1
same,PI,[2],1374
"Fel 8-2: TRFP chain 1 peptide, amino acids 6 - 33 (VKRDVDLFLTGTPDEYVEQVAQYKALPV; UniProt P30438 28-55, looked up, fragment)",SI,[1],15.2
same,PI,[2],1353
"Fel 14-1: TRFP chain 1 peptide, amino acids 23 - 36 (EQVAQYKALPVVLE; UniProt P30438 45-58, looked up, fragment)",SI,[1],9.9
same,PI,[2],871
"Fel 14-2: TRFP chain 1 peptide, amino acids 29 - 42 (KALPVVLENARILK; UniProt P30438 51-64, looked up, fragment)",SI,[1],5.6
same,PI,[2],336
"Fel 14-4: TRFP chain 1 peptide, amino acids 26 - 36 (AQYKALPVVLE; UniProt P30438 48-58, looked up, fragment)",SI,[1],6.0
same,PI,[2],474
"Fel 14-5: TRFP chain 1 peptide, amino acids 27 - 36 (QYKALPVVLE; UniProt P30438 49-58, looked up, fragment)",SI,[1],5.4
same,PI,[2],286
"Fel 15: TRFP chain 1 peptide, amino acids 44 - 60 (CVDAKMTEEDKENALSV; UniProt P30438 66-82, looked up, fragment)",SI,[1],11.0
same,PI,[2],440
"Fel 23: TRFP chain 1 peptide, amino acids 51 - 66 (EEDKENALSVLDKIYT; UniProt P30438 73-88, looked up, fragment)",SI,[1],6.6
same,PI,[2],343
"Fel 30-2: TRFP chain 1 peptide, amino acids 25 - 48 (VAQYKALPVVLENARILKNCVDAK; UniProt P30438 47-70, looked up, fragment)",SI,[1],4.2
same,PI,[2],248
"Fel 30-3: TRFP chain 1 peptide, amino acids 25 - 47 (VAQYKALPVVLENARILKNCVDA; UniProt P30438 47-69, looked up, fragment)",SI,[1],4.8
same,PI,[2],230
"Fel 30-4: TRFP chain 1 peptide, amino acids 29 - 55 (KALPVVLENARILKNCVDAKMTEEDKE; UniProt P30438 51-77, looked up, fragment)",SI,[1],11.6
same,PI,[2],1079
"Fel 30-5: TRFP chain 1 peptide, amino acids 29 - 54 (KALPVVLENARILKNCVDAKMTEEDK; UniProt P30438 51-76, looked up, fragment)",SI,[1],11.0
same,PI,[2],792
"Fel 30-7: TRFP chain 1 peptide, amino acids 26 - 55 (AQYKALPVVLENARILKNCVDAKMTEEDKE; UniProt P30438 48-77, looked up, fragment)",SI,[1],5.3
same,PI,[2],339
"Fel 30-8: TRFP chain 1 peptide, amino acids 28 - 55 (YKALPVVLENARILKNCVDAKMTEEDKE; UniProt P30438 50-77, looked up, fragment)",SI,[1],4.1
same,PI,[2],262
"Fel 31-1: TRFP chain 2 peptide, amino acids 14 - 40 (FFAVANGNELLLDLSLTKVNATEPERT; UniProt P30440 31-57, looked up, fragment)",PI,[3],733
same,SI,[4],9.4
"Fel 31-2: TRFP chain 2 peptide, amino acids 14 - 39 (FFAVANGNELLLDLSLTKVNATEPER; UniProt P30440 31-56, looked up, fragment)",PI,[3],599
same,SI,[4],8.1
"Fel 31-4: TRFP chain 2 peptide, amino acids 14 - 37 (FFAVANGNELLLDLSLTKVNATEP; UniProt P30440 31-54, looked up, fragment)",PI,[3],622
same,SI,[4],8.4
"Fel 31-5: TRFP chain 2 peptide, amino acids 14 - 36 (FFAVANGNELLLDLSLTKVNATE; UniProt P30440 31-53, looked up, fragment)",PI,[3],539
same,SI,[4],7.6
"Fel 31-6: TRFP chain 2 peptide, amino acids 15 - 40 (FAVANGNELLLDLSLTKVNATEPERT; UniProt P30440 32-57, looked up, fragment)",PI,[3],295
same,SI,[4],4.4
"Fel 31-7: TRFP chain 2 peptide, amino acids 15 - 36 (FAVANGNELLLDLSLTKVNATE; UniProt P30440 32-53, looked up, fragment)",PI,[3],267
same,SI,[4],5.8
"Fel 32-1: TRFP chain 2 peptide, amino acids 12 - 24 (DVFFAVANGNELL; UniProt P30440 29-41, looked up, fragment)",PI,[3],442
same,SI,[4],6.6
"Fel 32-2: TRFP chain 2 peptide, amino acids 14 - 24 (FFAVANGNELL; UniProt P30440 31-41, looked up, fragment)",PI,[3],424
same,SI,[4],5.3
